Patent publication US10870660B2, “Nitrogen-containing condensed ring compounds having dopamine D3 antagonistic effect” (Shionogi & Co., Ltd., priority 2016, dated 2020)

Tests used:
[1] = biological target: human recombinant dopamine D3 receptor (Homo sapiens (Human), UniProt P35462); assay: Test of binding inhibition for the human dopamine D3 receptor ([3H]-Metylspiperone SPA binding); conditions: [3H]-Metylspiperone 2 nM, Jump-In HEK cell membranes, read-out: hD3_Ki
Experimental: Cell membranes: Jump-In HEK cell membranes expressing human recombinant dopamine D3 receptor (4 μg/well)
(§1) Non-specific ligand: (final concentration) 10 μM Butaclamol [(+)-Butaclamol Hydrochioride, D033, Sigma]
(§2) SPA beads: SPA beads [WGA PVT SPA Scintillatiion Beads, RPNQ0001 (500 mg), RPNQ0060 (2 g), PerkinElmer] (0.2 mg/well)
(§3) Incubation time and temperature: 120 min at 25° C.
(§4) Butaclamol or the compounds of the present invention were weighed and DMSO was added to make a 10 mM solution. This solution was diluted to each concentration.
[^3H]-Metylspiperone was weighed and the buffer solution was added to make a 6 nM solution.
(§5) SPA beads were weighed and stirred in water to make a 50 mg/mL solution. Using this solution, a mixed solution with the cell membranes was prepared.
Jump-In HEK Cell membranes (final reaction amount: 4 μg/well), SPA beads (final reaction amount: 0.2 mg/well) and Tris-HCl buffer were mixed and the mixed solution was left still for more than 60 min at 4° C. Then, 50 μL of the mixture was added to each well of the plate. In addition, 25 μL of 6 nM [^3H]-Metylspiperone (final concentration: 2 nM) was added to each well. […] Non-specific binding was calculated based on the radioactivity of [^3H]-Metylspiperone in the presence of 10 μM non-labeled Butaclamol. The total binding was calculated based on the radioactivity of [^3H]-Metylspiperone in the absence of the compounds of the present invention (Vehicle). The Ki values were calculated from dose-response curves.
(§6) Binding activities of the compounds of the present invention were calculated from the following Binding Inhibition Rate (%): Inhibition Rate (%)=[1−(c−a)(b−a)]×100(%) • a: Average cpm of non-specific binding • b: Average cpm of total binding • c: Cpm in the presence of each test compound

[2] = biological target: human recombinant dopamine D2 receptor (Homo sapiens (Human), UniProt P14416); assay: Test of binding inhibition for the human dopamine D2 receptor ([3H]-Metylspiperone SPA binding); conditions: [3H]-Metylspiperone 1.2 nM, Jump-In HEK cell membranes, read-out: hD2_Ki
Chain of human recombinant dopamine D2 receptor (P14416 whole entry): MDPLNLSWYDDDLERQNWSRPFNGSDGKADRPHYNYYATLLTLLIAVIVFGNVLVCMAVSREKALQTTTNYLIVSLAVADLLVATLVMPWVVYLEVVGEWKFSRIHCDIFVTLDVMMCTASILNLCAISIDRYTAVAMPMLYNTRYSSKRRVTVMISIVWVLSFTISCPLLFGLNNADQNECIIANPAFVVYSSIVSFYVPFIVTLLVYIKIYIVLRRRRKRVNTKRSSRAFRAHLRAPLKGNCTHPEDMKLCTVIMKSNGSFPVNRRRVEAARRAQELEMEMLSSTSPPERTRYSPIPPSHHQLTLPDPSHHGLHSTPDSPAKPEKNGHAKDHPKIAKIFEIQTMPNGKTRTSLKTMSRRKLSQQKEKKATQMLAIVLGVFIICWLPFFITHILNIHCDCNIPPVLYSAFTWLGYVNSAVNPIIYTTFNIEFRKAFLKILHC
Experimental: Cell membranes: Jump-In HEK cell membranes expressing human recombinant dopamine D2 receptor (2 μg/well)
Buffer solution: 50 mM Tris-HCl (35409-45, Nacalai Tesque) (pH 7.4) containing 120 mM NaCl (31320-05, Nacalai Tesque), 1 mM MgCl2.6H2O (20909-55, Nacalai Tesque), 5 mM KCl (28514-75, Nacalai Tesque) and 2 mM CaCl2 (067-31, Nacalai Chemical, Ltd)
Radioligand: (final concentration) 1.2 nM [^3H]-Metylspiperone ([^3H—N-methyl-]-Metylspiperone, NET-856, 83.8 Ci/mmol, PerkinElmer)
as §1, §2, §3, §4
[^3H]-Metylspiperone was weighed and the buffer solution was added to make a 3.6 nM solution.
as §5
225 nL of the solutions of the non-specific ligand or the compounds of the present invention at each concentration (in case of vehicle, final concentration 0.3% DMSO) were added in each well of a 384-well white/clear bottom microplate (3706, Corning). Jump-In HEK Cell membranes (final reaction amount: 2 μg protein/well), SPA beads (final reaction amount: 0.2 mg/well) and the buffer were mixed and the mixed solution was left still for more than or equal to 1 h at 4° C. Then, 50 μL of the mixture was added to each well of the plate. In addition, 25 μL of 3.6 nM [^3H]-Metylspiperone (final concentration: 1.2 nM) was added to each well. The plate was sealed by putting TopSeal-A 96/384 well (6050185, PerkinElmer) on the top of the plate, mixed using stirring deaerator (Welltornado, FK-62, Sakaki) and incubated for 120 min at 25° C. After incubation, the radioactivity of [^3H]-Metylspiperone which was binded to D2 receptor was determined by liquid scintillation counter (1450 Microbeta, PerkinElmer) in each well. Non-specific binding was calculated based on the radioactivity of [^3H]-Metylspiperone in the presence of 10 μM non-labeled Butaclamol. The total binding was calculated using the radioactivity of [^3H]-Metylspiperone in the absence of the compounds of the present invention (Vehicle). The Ki values were calculated from dose-response curves.
as §6

Chain of human recombinant dopamine D3 receptor (P35462 whole entry): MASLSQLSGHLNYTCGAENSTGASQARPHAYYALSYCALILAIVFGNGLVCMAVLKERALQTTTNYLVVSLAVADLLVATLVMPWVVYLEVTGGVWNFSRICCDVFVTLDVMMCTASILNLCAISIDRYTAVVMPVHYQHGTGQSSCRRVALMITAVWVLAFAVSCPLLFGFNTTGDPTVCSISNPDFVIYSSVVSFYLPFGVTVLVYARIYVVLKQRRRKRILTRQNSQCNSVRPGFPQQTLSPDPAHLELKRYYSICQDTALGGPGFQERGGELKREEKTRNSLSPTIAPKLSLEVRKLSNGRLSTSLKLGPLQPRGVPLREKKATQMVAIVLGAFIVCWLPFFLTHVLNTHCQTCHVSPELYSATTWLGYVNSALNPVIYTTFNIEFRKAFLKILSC

Ki [1] | Ki [2] | SMILES
0.48 nM | 650 nM | Cc1ncc(CC(=O)N[C@H]2CC[C@H](CCN3CCc4sc(OCC(C)(F)F)nc4C3)CC2)o1 [III-451]
0.72 nM | 460 nM | Cc1nc(CC(=O)N[C@H]2CC[C@H](CCN3CCc4nc(OCC(F)(F)F)sc4CC3)OC2)no1 [III-180]
0.79 nM | 1400 nM | Cc1ncc(CC(=O)N[C@H]2CC[C@H](CCN3CCc4ccc(OCC(C)F)nc4CC3)CC2)s1 (some centres unmarked) [III-203]
0.11 nM | 500 nM | O=C1Cc2cccc(C(=O)N[C@H]3CC[C@H](CCN4CCc5nc(OCC(F)F)sc5CC4)CC3)c2N1 [III-280]
0.83 nM | > 1800 nM | Cn1cc2c(C(=O)N[C@H]3CC[C@H](CCN4CCc5sc(COC(F)(F)F)nc5C4)CC3)cccc2n1 [III-623]
0.66 nM | > 1800 nM | Cn1cc2c(C(=O)N[C@H]3CC[C@H](CCN4CCc5ccc(C6CC6)nc5CC4)CC3)cccc2n1 [III-074]
0.37 nM | 920 nM | Cn1cc2c(C(=O)N[C@H]3CC[C@H](CCN4CCc5sc(CCC(C)(F)F)nc5C4)CC3)cccc2n1 [III-642]
0.47 nM | > 1700 nM | Cc1cc(CC(=O)N[C@H]2CC[C@H](CCN3CCc4nc(OCC(F)(F)F)sc4CC3)OC2)on1 [III-171]
9.6 nM | 1500 nM | O=C(N[C@H]1CO[C@H](CCN2CCc3sc(OCC(F)(F)F)nc3C2)OC1)OCc1ccccc1 [III-659]
0.15 nM | > 1800 nM | Cc1cnc(CC(=O)N[C@H]2CC[C@](F)(CCN3CCc4nc(OCC(F)(F)F)sc4CC3)CC2)o1 [III-266]
1.2 nM | 1100 nM | Cc1ncccc1C(=O)N[C@H]1CC[C@H](CCN2CCc3nc(OCC(F)F)sc3CC2)CC1 [III-271]
0.24 nM | 170 nM | Cn1cc2c(C(=O)N[C@H]3CC[C@H](CCN4CCc5sc(OCC(C)(F)F)nc5C4)CC3)cccc2n1 [III-441]
0.45 nM | 410 nM | Cc1nnc(CC(=O)N[C@H]2CC[C@](F)(CCN3CCc4ccc(OCC(F)(F)F)nc4CC3)CC2)o1 [III-082]
1.3 nM | > 1700 nM | Cc1ncc(CC(=O)N[C@H]2CC[C@H](C(F)CN3CCc4ccc(OCC(F)(F)F)nc4CC3)CC2)s1 (some centres unmarked) [III-216]
0.73 nM | > 1700 nM | Cn1cc2c(C(=O)N[C@H]3CC[C@H](CCN4CCc5nc(OCC(C)(C)F)sc5CC4)CC3)cccc2n1 [III-076]
0.68 nM | 650 nM | Cn1cc(OCC(=O)N[C@H]2CC[C@H](CCN3CCc4nc(OCC(F)(F)F)sc4CC3)OC2)cn1 [III-175]

Ki [1] | Ki [2] | SMILES
0.25 nM | 480 nM | Cc1ncc(CC(=O)N[C@H]2CC[C@H](CCN3CCc4cc(C)c(OCC(F)F)nc4CC3)OC2)s1 [III-008]
0.16 nM | 330 nM | Cc1cc2c(C(=O)N[C@H]3CC[C@H](CCN4CCc5ccc(OCC(F)(F)F)nc5CC4)OC3)cccn2n1 [III-228]
0.67 nM | > 1800 nM | Cc1cc(CC(=O)N[C@H]2CC[C@](F)(CCN3CCc4nc(OCC(F)(F)F)sc4CC3)CC2)no1 [III-255]
0.37 nM | 580 nM | Cn1cc2c(C(=O)N[C@H]3CC[C@H](CCN4CCc5sc(OCC(F)(F)F)nc5C4)CC3)cccc2n1 [III-464]
0.64 nM | 800 nM | Cn1cc(CC(=O)N[C@H]2CC[C@H](CCN3CCc4sc(OCC(C)(F)F)nc4C3)CC2)c(F)n1 [III-547]
0.43 nM | 590 nM | Cc1ncccc1C(=O)N[C@H]1CC[C@](F)(CCN2CCc3nc(OCC(F)(F)F)sc3CC2)CC1 [III-252]
0.78 nM | 1100 nM | Cc1cnc(CC(=O)N[C@H]2CC[C@H](CCN3CCc4nc(OCC(F)(F)F)sc4CC3)OC2)o1 [III-220]
0.39 nM | 340 nM | Cn1cc(OCC(=O)N[C@H]2CC[C@](F)(CCN3CCc4nc(OCC(F)(F)F)sc4CC3)CC2)cn1 [III-268]
0.4 nM | 310 nM | Cc1ncccc1C(=O)N[C@H]1CC[C@H](CCN2CCc3sc(OCC(C)(F)F)nc3C2)CC1 [III-555]
0.31 nM | 310 nM | Cc1ncc(OCC(=O)N[C@H]2CC[C@](F)(CCN3CCc4ccc(OCC(F)(F)F)nc4CC3)CC2)cn1 [III-088]
1.1 nM | 1100 nM | Cc1nnc(CC(=O)N[C@H]2CC[C@H](CCN3CCc4sc(CCC(F)(F)F)nc4C3)CC2)o1 [III-674]
0.44 nM | 79 nM | CC(F)(F)COc1nc2c(s1)CCN(CC[C@H]1CC[C@H](NS(=O)(=O)c3cccc(F)c3)CC1)C2 [III-576]
0.051 nM | 290 nM | Cc1nc(/C=C/C(=O)N[C@H]2CC[C@H](CCN3CCc4sc(N5CC(F)(F)C5)nc4C3)CC2)cs1 [III-706]
0.22 nM | 560 nM | Cc1ncc(CC(=O)N[C@H]2CC[C@](F)(CCN3CCc4nc(OCC(F)(F)F)sc4CC3)CC2)o1 [III-262]
0.51 nM | 380 nM | CCn1c(C(=O)N[C@H]2CC[C@H](CCN3CCc4sc(CCC(F)(F)F)nc4C3)CC2)cccc1=O [III-704]

Second part, the molecule before the results:

SMILES | Ki [1] | Ki [2]
O=C(N[C@H]1C[C@@H]2[C@@H](CCN3CCc4sc(OCC(F)F)nc4C3)[C@@H]2C1)c1cccc2ncccc12 [Compound I-124] | 0.91 nM | 860 nM
Cc1ncc(/C=C/C(=O)N[C@H]2CC[C@H](CCN3CCc4nc(OCC(F)(F)F)sc4CC3)CC2)cn1 [II-048] | 0.82 nM | > 1700 nM
CC(C)Oc1ccc2c(n1)CCN(CC[C@H]1CC[C@H](NC(=O)c3cccc4nn(C)cc34)CC1)CC2 [II-050] | 0.51 nM | > 1800 nM
O=C(N[C@H]1CC[C@H](CCN2CCc3sc(Cc4ccccc4)nc3C2)CC1)c1cccc2ncccc12 [Compound I-014] | 1.3 nM | > 1700 nM
Cc1ncc(CC(=O)N[C@H]2CC[C@H](CCN3CCc4sc(OCC(F)F)nc4C3)CC2)s1 [Compound I-107] | 0.82 nM | 370 nM
O=C(N[C@H]1CC[C@H](CCN2CCc3cn(Cc4ccccc4)nc3C2)CC1)c1cccc2ncccc12 [Compound I-113] | 4.7 nM | > 1700 nM
O=C(NCCCCN1CCc2ccc(OCC(F)(F)F)nc2CC1)c1cc2ccccc2[nH]1 [II-105] | 0.11 nM | 1100 nM
CC(=O)N[C@H]1CC[C@H](CCN2CCc3nc(OCC(C)(F)F)sc3CC2)CC1 [II-014] | 0.45 nM | 230 nM
Cc1nc(CC(=O)N[C@H]2CC[C@H](CCN3CCc4nc(CCC(F)(F)F)sc4CC3)CC2)no1 [II-019] | 2.3 nM | > 1800 nM
O=C(N[C@H]1CC[C@H](CCN2CCc3sc(N4CC5CC5C4)nc3C2)CC1)c1cccc2ncccc12 (some centres unmarked) [Compound I-073] | 0.08 nM | > 1700 nM
Cc1ncc(CC(=O)N[C@H]2CC[C@H](CCN3CCc4nc(OCC5CC5)sc4CC3)CC2)s1 [II-090] | 0.64 nM | > 1900 nM
O=C(N[C@H]1CC[C@H](CCN2CCc3ccc(OCC(F)F)nc3C2)CC1)c1cccc2ncccc12 [Compound I-139] | 0.69 nM | > 1700 nM
Cc1ncc(CC(=O)N[C@H]2CC[C@H](CCN3CCc4nc(OCC(C)(F)F)sc4CC3)CC2)o1 [II-029] | 0.12 nM | 1300 nM
Cn1cc2c(C(=O)N[C@H]3CC[C@H](CCN4CCc5ccc(OCC(F)F)nc5CC4)CC3)cccc2n1 [II-057] | 0.014 nM | > 1700 nM
CC1c2nc(OCC(F)F)sc2CCN1CC[C@H]1CC[C@H](NC(=O)c2cccc3ncccc23)CC1 (some centres unmarked) [Compound I-101] | 8.1 nM | > 1700 nM
